Where two headings read alike, the source gives them in different places.
Target: urease (Jack bean) (Canavalia ensiformis, UniProt P07374)
Test: in vitro urease inhibition, indophenol method
Type: biochemical

urease (Jack bean), sequence (P07374 whole entry, looked up): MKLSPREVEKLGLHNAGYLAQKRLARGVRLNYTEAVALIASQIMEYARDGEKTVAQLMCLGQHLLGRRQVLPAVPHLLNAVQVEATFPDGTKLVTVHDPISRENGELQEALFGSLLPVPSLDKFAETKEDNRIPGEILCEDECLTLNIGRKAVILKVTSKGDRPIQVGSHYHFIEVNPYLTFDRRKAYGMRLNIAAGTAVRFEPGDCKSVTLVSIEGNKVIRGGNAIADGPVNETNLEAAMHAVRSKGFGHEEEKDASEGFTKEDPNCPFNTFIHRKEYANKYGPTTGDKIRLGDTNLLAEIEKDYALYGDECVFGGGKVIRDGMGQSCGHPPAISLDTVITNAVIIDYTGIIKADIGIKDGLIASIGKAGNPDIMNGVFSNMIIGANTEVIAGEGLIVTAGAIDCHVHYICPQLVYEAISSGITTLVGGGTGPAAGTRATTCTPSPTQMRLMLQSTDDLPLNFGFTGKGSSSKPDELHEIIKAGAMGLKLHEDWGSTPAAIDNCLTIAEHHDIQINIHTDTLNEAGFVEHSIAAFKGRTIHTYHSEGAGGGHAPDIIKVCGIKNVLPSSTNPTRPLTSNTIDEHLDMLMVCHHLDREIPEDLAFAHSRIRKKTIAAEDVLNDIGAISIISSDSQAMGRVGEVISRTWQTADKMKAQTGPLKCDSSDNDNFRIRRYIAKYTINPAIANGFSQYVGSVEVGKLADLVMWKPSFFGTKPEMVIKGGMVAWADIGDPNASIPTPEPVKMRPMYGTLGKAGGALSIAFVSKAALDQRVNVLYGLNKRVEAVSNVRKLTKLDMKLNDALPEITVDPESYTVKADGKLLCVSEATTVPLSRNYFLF

Compound | IC50 [µM] | IC50 (read-out: IC50 ± SEM (μM) *) [µM]
CC(C)(C)NC(=S)NNC(=O)C12CC3CC(CC(C3)C1)C2 [compound 1, 2-(Adamantane-1-carbonyl)-N-(tert-butyl)hydrazine-1-carbothioamide] | 1.2 ± 0.07 | –
O=C(NNC(=S)NC1CCCCC1)C12CC3CC(CC(C3)C1)C2 [compound 2, 2-(Adamantane-1-carbonyl)-N-cyclohexylhydrazine-1-carbothioamide] | – | 2.44 ± 0.11

— paper PMC9741201, “X-ray Structures and Computational Studies of Two Bioactive 2-(Adamantane-1-carbonyl)-N-substituted Hydrazine-1-carbothioamides” (Molecules, 2022)
